These results are taken from patent US11459335B2, “N/O-linked Degrons and Degronimers for protein degradation” (C4 Therapeutics, Inc., priority 2017, dated 2022).

One may read the Kd as the equilibrium constant for the complex coming apart. A high value points to lower affinity.

The test deals with CRBN-DDB1 (Homo sapiens (Human), UniProt Q96SW2). The experiment in a line: Fluorescence polarization (FP) assay for compound ligand binding to CRBN-DDB1. To be noted: FP displacement of (−)-Thalidomide-Alexa Fluor or Pomalidomide-fluorescein probe (5 nM), 400 nM CRBN-DDB1, 60 min room temperature. The method, then: Measuring compound ligand binding to CRBN-DDB1 was carried out using an established sensitive and quantitative in vitro fluorescence polarization (FP) based binding assay. […] Compounds were dispensed from serially diluted DMSO stock into black 384-well compatible fluorescence polarization plates using an Echo acoustic dispenser. Compound binding to CRBN-DDB1 was measured by displacement of either a (−)-Thalidomide-Alexa Fluor® or Pornalidomide-fluorescein conjugated probe dye. […] Matching control wells excluding CRBN-DDB1 were used to correct for background fluorescence. Plates were read on an Envision plate reader with appropriate FP filter sets. The corrected S (perpendicular) and P (parallel) values were used to calculate fluorescence polarization (FP) with the following equation: FP=1000*(S−G*P)/(S+G*P).
Sequence of CRBN-DDB1 (Q96SW2 whole entry): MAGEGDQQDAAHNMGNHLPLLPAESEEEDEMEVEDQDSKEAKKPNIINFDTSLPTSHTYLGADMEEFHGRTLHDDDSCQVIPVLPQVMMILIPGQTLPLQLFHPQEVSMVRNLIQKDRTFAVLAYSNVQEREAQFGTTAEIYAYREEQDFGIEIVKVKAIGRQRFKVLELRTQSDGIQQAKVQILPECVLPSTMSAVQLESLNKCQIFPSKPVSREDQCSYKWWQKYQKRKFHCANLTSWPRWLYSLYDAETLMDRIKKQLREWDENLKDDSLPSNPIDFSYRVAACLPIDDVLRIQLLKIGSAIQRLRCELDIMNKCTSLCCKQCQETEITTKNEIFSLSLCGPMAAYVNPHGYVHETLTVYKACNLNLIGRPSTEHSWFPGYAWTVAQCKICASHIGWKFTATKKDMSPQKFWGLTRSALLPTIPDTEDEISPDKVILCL
Sequence of CRBN-DDB1 (Q16531 whole entry partner): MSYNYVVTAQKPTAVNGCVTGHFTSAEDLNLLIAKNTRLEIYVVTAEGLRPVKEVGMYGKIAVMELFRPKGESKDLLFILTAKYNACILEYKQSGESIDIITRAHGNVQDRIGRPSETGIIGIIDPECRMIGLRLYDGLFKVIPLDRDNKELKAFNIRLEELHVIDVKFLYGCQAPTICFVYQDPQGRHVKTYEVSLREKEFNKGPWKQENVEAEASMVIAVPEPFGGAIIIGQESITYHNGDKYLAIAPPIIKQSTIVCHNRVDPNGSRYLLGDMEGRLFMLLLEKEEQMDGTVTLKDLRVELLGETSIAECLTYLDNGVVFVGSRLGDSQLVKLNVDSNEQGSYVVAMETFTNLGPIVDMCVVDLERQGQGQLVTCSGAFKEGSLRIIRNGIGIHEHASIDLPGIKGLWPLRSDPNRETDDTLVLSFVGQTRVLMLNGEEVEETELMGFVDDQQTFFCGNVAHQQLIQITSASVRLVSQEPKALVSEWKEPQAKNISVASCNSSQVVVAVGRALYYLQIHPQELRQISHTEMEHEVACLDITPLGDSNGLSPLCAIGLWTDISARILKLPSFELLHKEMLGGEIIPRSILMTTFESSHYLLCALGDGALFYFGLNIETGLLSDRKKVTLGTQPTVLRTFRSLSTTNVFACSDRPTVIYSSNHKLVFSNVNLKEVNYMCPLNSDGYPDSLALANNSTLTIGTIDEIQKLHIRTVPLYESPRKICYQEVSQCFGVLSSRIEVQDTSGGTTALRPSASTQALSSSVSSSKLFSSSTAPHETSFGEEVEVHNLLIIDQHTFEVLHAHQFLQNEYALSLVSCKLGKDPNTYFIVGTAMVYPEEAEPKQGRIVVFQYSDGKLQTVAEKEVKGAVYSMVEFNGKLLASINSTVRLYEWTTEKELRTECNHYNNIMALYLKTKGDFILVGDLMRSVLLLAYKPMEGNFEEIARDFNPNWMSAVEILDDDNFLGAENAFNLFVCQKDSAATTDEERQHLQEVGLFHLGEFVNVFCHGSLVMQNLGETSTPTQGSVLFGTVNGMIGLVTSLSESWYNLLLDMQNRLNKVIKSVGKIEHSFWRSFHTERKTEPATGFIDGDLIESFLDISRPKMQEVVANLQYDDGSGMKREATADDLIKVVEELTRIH
Background: Polarisation of emitted light reports the rotation of a fluorescent probe.

Where [1] appears, read: Degrons, Compounds of the Present Invention.
The mark [2] stands for this setting: Additional Compounds of the Present Invention.

For the compound `CN(C1CN(C(=O)OC(C)(C)C)C1)C1CCC(=O)NC1=O` (stereo not drawn) [Compound 98], the Kd under setting [1] fell in the range of 50 to 100 µM.

Regarding `COc1ccc(C(C)(C)C)cc1NC1CCC(=O)NC1=O` (stereo not drawn) [Compound 25], under setting [1], the Kd was 50 to 100 µM.

Regarding `COC(=O)c1ccccc1OC1CCC(=O)NC1=O` (stereo not drawn) [Compound 155], the Kd under setting [2] was 50 to 100 µM.

Take `Cn1nc(NC2CCC(=O)NC2=O)c2ccccc21` (stereo not drawn) [Compound 116]: under setting [1], the Kd fell in the range of 10 to 50 µM.

The compound `O=C1CCC(Oc2ccccc2)C(=O)N1` (stereo not drawn) [Compound 129] showed a Kd under setting [2] of 10 to 50 µM.

In the case of `O=C1CCC(Nc2ccn(-c3ccccc3)n2)C(=O)N1` (stereo not drawn) [Compound 114], under setting [1], the Kd lay within 10 to 50 µM.

`CN1CCN(c2ccc(OC3CCC(=O)NC3=O)cc2)CC1` (stereo not drawn) [Compound 130]: the Kd under setting [2] fell in the range of 10 to 50 µM.

In turn, `O=C1CCC(Nc2ccc3c(c2)CCNC3)C(=O)N1` (stereo not drawn) [Compound 83] displayed a Kd under setting [1] of 10 to 50 µM.

`O=C1CCC(Nc2cnn(C3CCNCC3)c2)C(=O)N1` (stereo not drawn) [Compound 94] gave a Kd under setting [1] of 10 to 50 µM.

Take `CC(C)(C)OC(=O)N1CCC(c2ccc(NC3CCC(=O)NC3=O)nc2)CC1` (stereo not drawn) [Compound 123]: the Kd under setting [1] lay within 10 to 50 µM.

Under setting [2], `CC(=O)c1cc(C)ccc1OC1CCC(=O)NC1=O` (stereo not drawn) [Compound 146] returned a Kd of 50 to 100 µM.

For the compound `CN(CC(=O)Nc1ccccc1)C1CCC(=O)NC1=O` (stereo not drawn) [Compound 108], the Kd under setting [1] lay in the range of 10 to 50 µM.

Turning to `CN1CC(N(C)C2CCC(=O)NC2=O)CC1=O` (stereo not drawn) [Compound 104], the Kd under setting [1] was 50 to 100 µM.

As for `O=C1CCC(Nc2ccc(F)cc2)C(=O)N1` (stereo not drawn) [Compound 8], the Kd under setting [1] was in the range of 10 to 50 µM.

Regarding `Cc1ccn(-c2ccc(OC3CCC(=O)NC3=O)cc2)n1` (stereo not drawn) [Compound 143], the Kd under setting [2] was in the range of 10 to 50 µM.

As for `O=C1CCC(Nc2cccnc2)C(=O)N1` (stereo not drawn) [Compound 115], under setting [1], the Kd lay within 10 to 50 µM.

For the compound `O=C1CCC(Nc2cnn(-c3ccccc3)c2)C(=O)N1` (stereo not drawn) [Compound 75], the Kd under setting [1] lay within 10 to 50 µM.

Under setting [1], `CN1CCc2ccc(NC3CCC(=O)NC3=O)cc2C1=O` (stereo not drawn) [Compound 76] returned a Kd of 10 to 50 µM.

The compound `Cn1cnc2cc(NC3CCC(=O)NC3=O)ccc21` (stereo not drawn) [Compound 78] came in with a Kd under setting [1] of 10 to 50 µM.

Under setting [1], `NCc1cccc(NC2CCC(=O)NC2=O)c1` (stereo not drawn) [Compound 91] had a Kd of 10 to 50 µM.

Consider `O=C1CCC(Nc2ccccc2)C(=O)N1` (stereo not drawn) [Compound 125], for which, under setting [1], the Kd lay in the range of 10 to 50 µM.

The compound `CN(c1ccc(F)cc1F)C1CCC(=O)NC1=O` (stereo not drawn) [Compound 2] showed a Kd under setting [1] of 50 to 100 µM.

Regarding `NCc1ccc(NC2CCC(=O)NC2=O)cc1` (stereo not drawn) [Compound 90], under setting [1], the Kd lay in the range of 10 to 50 µM.

With `O=C1CCC(Nc2cccnc2)C(=O)N1` (stereo not drawn) [Compound 80], the Kd under setting [1] lay within 10 to 50 µM.

Consider `O=C1CCC(Nc2cc(C(=O)N3CCCC3)ccn2)C(=O)N1` (stereo not drawn) [Compound 119], for which, under setting [1], the Kd fell in the range of 50 to 100 µM.

Under setting [2], `Cn1cnc2cc(OC3CCC(=O)NC3=O)ccc21` (stereo not drawn) [Compound 142] registered a Kd of 10 to 50 µM.

As for `COc1ccc(C(F)(F)F)cc1NC1CCC(=O)NC1=O` (stereo not drawn) [Compound 24], under setting [1], the Kd fell in the range of 10 to 50 µM.

For `COc1ccc(N(C)C2CCC(=O)NC2=O)c(OC)c1` (stereo not drawn) [Compound 69], under setting [1], the Kd fell in the range of 10 to 50 µM.

`CC(C)(C)OC(=O)N1CCN(c2nccc(NC3CCC(=O)NC3=O)n2)CC1` (stereo not drawn) [Compound 121]: the Kd under setting [1] was 50 to 100 µM.

Under setting [2], `O=C1CC[C@@H](O[C@H]2CCN(c3ccccc3)C2=O)C(=O)N1` (single isomer, unassigned) [Compound 161, 3-(2-Oxo-1-phenyl-pyrrolidin-3-yloxy)-piperidine-2,6-dione] gave a dissociation constant (Kd) of 50 to 100 µM.

As to `CN1Cc2ccc(NC3CCC(=O)NC3=O)cc2C1=O` (stereo not drawn) [Compound 93], the Kd under setting [1] lay in the range of 50 to 100 µM.

Turning to `CN(C1CN(c2ccccc2)C1)C1CCC(=O)NC1=O` (stereo not drawn) [Compound 103], under setting [1], the Kd lay within 10 to 50 µM.

`O=C1CCC(Nc2c(F)cccc2F)C(=O)N1` (stereo not drawn) [Compound 63] showed a Kd under setting [1] of 10 to 50 µM.

As for `CC(C)(C)OC(=O)N1CCC(n2cc(NC3CCC(=O)NC3=O)cn2)CC1` (stereo not drawn) [Compound 73], under setting [1], the Kd was in the range of 50 to 100 µM.

The compound `CC(=O)c1ccccc1OC1CCC(=O)NC1=O` (stereo not drawn) [Compound 153] had a Kd under setting [2] of 50 to 100 µM.

Take `O=C1CCC(Nc2ccc3cccnc3c2)C(=O)N1` (stereo not drawn) [Compound 163]: the Kd under setting [2] fell in the range of 10 to 50 µM.

The compound `CC(C)(C)OC(=O)N1Cc2cnc(NC3CCC(=O)NC3=O)nc2C1` (stereo not drawn) [Compound 117] gave a Kd under setting [1] of 50 to 100 µM.

Under setting [2], `CC(C)(C)OC(=O)N1CCN(c2ccc(NC3CCC(=O)NC3=O)cn2)CC1` (stereo not drawn) [Compound 156, 4-[5-(2,6-Dioxo-piperidin-3-ylamino)-pyridin-2-yl]-piperazine-1-carboxylic Acid tert-butyl Ester] showed a Kd of 10 to 50 µM.

Compound `CS(=O)(=O)c1cccc(OC2CCC(=O)NC2=O)c1` (stereo not drawn) [Compound 144] registered a Kd under setting [2] of 10 to 50 µM.

In the case of `Cn1cnc2c(NC3CCC(=O)NC3=O)cccc21` (stereo not drawn) [Compound 74], the Kd under setting [1] lay in the range of 10 to 50 µM.

Compound `Cc1cnc(NC2CCC(=O)NC2=O)cn1` (stereo not drawn) [Compound 124] yielded a Kd under setting [1] of 10 to 50 µM.

In turn, `CN(c1cccc(N2CCNCC2)c1)C1CCC(=O)NC1=O` (stereo not drawn) [Compound 87] gave a Kd under setting [1] of 10 to 50 µM.

Regarding `Cn1nc(NC2CCC(=O)NC2=O)cc1-c1ccccc1` (stereo not drawn) [Compound 157, 3-(1-Methyl-5-phenyl-1H-pyrazol-3-ylamino)-piperidine-2,6-dione], the Kd under setting [2] lay in the range of 10 to 50 µM.

For `O=C1CCC(Nc2ccccc2OC(F)(F)F)C(=O)N1` (stereo not drawn) [Compound 21], the Kd under setting [1] was 10 to 50 µM.

The compound `O=C1CCC(Nc2ccc3ccccc3n2)C(=O)N1` (stereo not drawn) [Compound 120] came in with a Kd under setting [1] of 10 to 50 µM.

In the case of `CC(C)(C)OC(=O)N1CCN(c2ccc(COC3CCC(=O)NC3=O)cc2)CC1` (stereo not drawn) [Compound 131, 4-[4-(2,6-Dioxo-piperidin-3-yloxymethyl)-phenyl]-piperazine-1-carboxylic Acid tert-butyl Ester], the Kd under setting [2] was 10 to 50 µM.

Under setting [1], `CN(C1CC(=O)N(c2ccccc2)C1)C1CCC(=O)NC1=O` (stereo not drawn) [Compound 105] showed a dissociation constant (Kd) of 50 to 100 µM.

Take `O=C1CCC(Nc2ccc(N3CCNCC3)cc2)C(=O)N1` (stereo not drawn) [Compound 89]: the equilibrium dissociation constant (Kd) under setting [1] is 10 to 50 µM.

Under setting [1], `CN(CC(N)=O)C1CCC(=O)NC1=O` (stereo not drawn) [Compound 110] registered a Kd of 10 to 50 µM.

`O=C1CCC(Nc2ccc(C3CCNCC3)cn2)C(=O)N1` (stereo not drawn) [Compound 84] yielded a Kd under setting [1] of 10 to 50 µM.

Take `O=C1CC[C@H](O[C@H]2CCN(c3ccccc3)C2=O)C(=O)N1` (single isomer, unassigned) [Compound 162, 3-(2-Oxo-1-phenyl-pyrrolidin-3-yloxy)-piperidine-2,6-dione]: the Kd under setting [2] is 10 to 50 µM.

In the case of `O=C1CCC(Nc2ccccc2N2CCOCC2)C(=O)N1` (stereo not drawn) [Compound 14], the Kd under setting [1] fell in the range of 10 to 50 µM.

For the compound `COc1cc(OC)nc(NC2CCC(=O)NC2=O)n1` (stereo not drawn) [Compound 113], the Kd under setting [1] fell in the range of 50 to 100 µM.

`O=C1CCC(Nc2ccc(N3CCNCC3)nc2)C(=O)N1` (stereo not drawn) [Compound 158, 3-(6-Piperazin-1-yl-pyridin-3-ylamino)-piperidine-2,6-dione] returned a Kd under setting [2] of 10 to 50 µM.

Take `O=C1CCC(Nc2ccccc2CN2CCCC2)C(=O)N1` (stereo not drawn) [Compound 71]: the Kd under setting [1] lay within 10 to 50 µM.

Under setting [1], `O=C1CCC(Nc2cccc(CN3CCCCC3)c2)C(=O)N1` (stereo not drawn) [Compound 72] yielded a Kd of 10 to 50 µM.

Under setting [1], `CN(c1ccc(F)cc1)C1CCC(=O)NC1=O` (stereo not drawn) [Compound 17] had a Kd of 10 to 50 µM.
